ChEMBL document CHEMBL1641539 (Bioorg Med Chem Lett, 2011)
pIC50: −log10 of the molar value.

Columns and labels:
[1] = biological target: Serine/threonine-protein kinase PLK3 (Homo sapiens) (UniProt Q9H4B4); assay: Inhibition of PLK3 at 10 uM after 60 mins by TR-FRET assay
[2] = biological target: T1, Aurora kinase A (Homo sapiens) (UniProt O14965); assay: Inhibition of Aurora A at 10 uM after 60 mins by TR-FRET assay
T1 sequence (whole entry): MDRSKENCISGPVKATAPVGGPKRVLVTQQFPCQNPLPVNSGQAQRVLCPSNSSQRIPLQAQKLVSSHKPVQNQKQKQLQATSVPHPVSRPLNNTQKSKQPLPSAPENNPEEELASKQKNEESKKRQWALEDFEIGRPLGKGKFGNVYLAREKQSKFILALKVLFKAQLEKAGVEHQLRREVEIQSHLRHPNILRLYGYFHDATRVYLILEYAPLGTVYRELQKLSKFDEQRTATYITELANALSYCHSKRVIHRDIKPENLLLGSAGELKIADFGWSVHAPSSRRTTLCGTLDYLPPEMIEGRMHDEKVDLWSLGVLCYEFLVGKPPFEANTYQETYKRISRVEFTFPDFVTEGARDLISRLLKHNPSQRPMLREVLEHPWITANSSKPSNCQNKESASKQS

[3] = biological target: Serine/threonine-protein kinase PLK1 (Homo sapiens) (UniProt P53350); assay: Inhibition of PLK1 at 10 uM after 60 mins by TR-FRET assay
Serine/threonine-protein kinase PLK1 (Homo sapiens), sequence (P53350 whole entry): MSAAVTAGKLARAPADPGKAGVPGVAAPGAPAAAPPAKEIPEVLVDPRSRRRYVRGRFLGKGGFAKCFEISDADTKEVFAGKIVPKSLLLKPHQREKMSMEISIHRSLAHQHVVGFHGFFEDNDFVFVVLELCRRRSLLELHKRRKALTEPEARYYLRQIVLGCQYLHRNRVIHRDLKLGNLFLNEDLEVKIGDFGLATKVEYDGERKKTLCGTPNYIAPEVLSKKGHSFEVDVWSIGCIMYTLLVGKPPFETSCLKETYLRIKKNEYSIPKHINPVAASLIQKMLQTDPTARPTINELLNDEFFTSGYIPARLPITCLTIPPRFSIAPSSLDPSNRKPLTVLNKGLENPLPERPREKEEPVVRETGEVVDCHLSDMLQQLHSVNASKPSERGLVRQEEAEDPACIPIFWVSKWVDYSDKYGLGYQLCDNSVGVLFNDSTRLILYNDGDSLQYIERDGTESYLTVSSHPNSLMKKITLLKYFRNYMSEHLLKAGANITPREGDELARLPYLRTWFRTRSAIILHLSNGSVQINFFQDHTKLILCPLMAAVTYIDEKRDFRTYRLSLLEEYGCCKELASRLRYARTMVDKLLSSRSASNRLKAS

[4] = biological target: Leucine-rich repeat serine/threonine-protein kinase 2 (Homo sapiens) (UniProt Q5S007); assay: Inhibition of LRRK2 at 10 uM after 60 mins by TR-FRET assay
[5] = biological target: Mitogen-activated protein kinase 10 (Homo sapiens, UniProt P53779); assay: Inhibition of MAPK10 at 10 uM after 60 mins by TR-FRET assay
[6] = biological target: Mitogen-activated protein kinase 8 (Homo sapiens, UniProt P45983); assay: Inhibition of recombinant JNK1 after 60 mins by TR-FRET assay
[7] = biological target: Tyrosine-protein kinase SYK (Homo sapiens) (UniProt P43405); assay: Inhibition of SYK at 10 uM after 60 mins by TR-FRET assay
[8] = biological target: T2, Serine/threonine-protein kinase 3 (Homo sapiens) (UniProt Q13188); assay: Inhibition of STK3 at 10 uM after 60 mins by TR-FRET assay
T2 sequence (whole entry): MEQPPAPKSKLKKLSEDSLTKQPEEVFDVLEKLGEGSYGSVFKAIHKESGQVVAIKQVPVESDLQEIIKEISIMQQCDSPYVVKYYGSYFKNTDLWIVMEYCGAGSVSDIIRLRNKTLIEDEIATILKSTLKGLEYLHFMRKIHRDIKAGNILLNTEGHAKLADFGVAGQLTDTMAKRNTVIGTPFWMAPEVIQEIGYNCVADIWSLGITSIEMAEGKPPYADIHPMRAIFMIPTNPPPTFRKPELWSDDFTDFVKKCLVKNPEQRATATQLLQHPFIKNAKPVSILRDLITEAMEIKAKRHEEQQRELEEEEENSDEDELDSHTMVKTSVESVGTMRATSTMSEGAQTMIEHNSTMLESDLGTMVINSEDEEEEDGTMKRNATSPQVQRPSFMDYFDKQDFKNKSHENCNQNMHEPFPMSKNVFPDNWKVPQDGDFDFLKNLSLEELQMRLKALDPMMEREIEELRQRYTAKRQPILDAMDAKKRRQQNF

[9] = biological target: Calcium/calmodulin-dependent protein kinase type II subunit alpha (Homo sapiens) (UniProt Q9UQM7); assay: Inhibition of CAMK2A at 10 uM after 60 mins by TR-FRET assay
Calcium/calmodulin-dependent protein kinase type II subunit alpha (Homo sapiens), sequence (Q9UQM7 whole entry): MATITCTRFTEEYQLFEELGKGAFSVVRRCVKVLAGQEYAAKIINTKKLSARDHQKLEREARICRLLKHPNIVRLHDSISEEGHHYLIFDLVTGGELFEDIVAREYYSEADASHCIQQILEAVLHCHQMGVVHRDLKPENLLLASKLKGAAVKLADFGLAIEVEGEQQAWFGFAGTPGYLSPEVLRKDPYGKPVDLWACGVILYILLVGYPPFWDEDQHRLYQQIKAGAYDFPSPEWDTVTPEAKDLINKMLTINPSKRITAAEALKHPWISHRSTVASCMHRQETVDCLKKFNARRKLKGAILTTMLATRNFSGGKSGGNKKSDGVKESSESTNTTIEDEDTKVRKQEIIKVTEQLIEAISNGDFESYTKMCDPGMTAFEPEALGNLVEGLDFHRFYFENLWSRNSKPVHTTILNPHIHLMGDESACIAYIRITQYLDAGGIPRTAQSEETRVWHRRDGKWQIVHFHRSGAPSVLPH

[10] = biological target: Receptor tyrosine-protein kinase erbB-4 (Homo sapiens) (UniProt Q15303); assay: Inhibition of ERBB4 at 10 uM after 60 mins by TR-FRET assay
[11] = biological target: cAMP-dependent protein kinase catalytic subunit alpha (Homo sapiens) (UniProt P17612); assay: Inhibition of PRKACA at 10 uM after 60 mins by TR-FRET assay
[12] = biological target: Cyclin-dependent kinase 5/CDK5 activator 1 (Homo sapiens) (UniProt Q00535+Q15078); assay: Inhibition of CDK5/p25 at 10 uM after 60 mins by TR-FRET assay; format: protein-complex assay
[13] = biological target: Protein kinase C beta type (Homo sapiens) (UniProt P05771); assay: Inhibition of PRKCB1 at 10 uM after 60 mins by TR-FRET assay
Protein kinase C beta type (Homo sapiens), sequence (P05771 2-671 limits assumed): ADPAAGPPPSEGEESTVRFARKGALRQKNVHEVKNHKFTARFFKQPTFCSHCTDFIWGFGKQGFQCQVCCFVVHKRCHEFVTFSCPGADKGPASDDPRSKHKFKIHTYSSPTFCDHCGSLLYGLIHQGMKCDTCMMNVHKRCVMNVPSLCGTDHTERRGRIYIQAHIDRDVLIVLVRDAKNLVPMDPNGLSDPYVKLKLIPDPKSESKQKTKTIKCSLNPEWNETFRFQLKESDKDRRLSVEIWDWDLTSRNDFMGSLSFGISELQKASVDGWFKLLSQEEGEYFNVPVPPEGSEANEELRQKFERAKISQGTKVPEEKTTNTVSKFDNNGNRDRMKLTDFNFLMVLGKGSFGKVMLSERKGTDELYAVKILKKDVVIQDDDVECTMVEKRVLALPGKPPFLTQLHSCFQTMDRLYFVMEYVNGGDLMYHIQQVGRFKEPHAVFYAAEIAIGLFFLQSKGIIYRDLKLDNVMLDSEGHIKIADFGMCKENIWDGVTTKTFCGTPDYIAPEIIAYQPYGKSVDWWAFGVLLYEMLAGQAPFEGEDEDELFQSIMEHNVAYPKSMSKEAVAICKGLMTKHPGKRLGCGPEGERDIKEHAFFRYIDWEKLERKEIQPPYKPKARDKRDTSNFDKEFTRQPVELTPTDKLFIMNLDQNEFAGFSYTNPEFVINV

[14] = biological target: T3, Mitogen-activated protein kinase 1 (Homo sapiens, UniProt P28482); assay: Inhibition of recombinant ERK2 after 60 mins by TR-FRET assay
[15] = biological target: Platelet-derived growth factor receptor alpha (Homo sapiens) (UniProt P16234); assay: Inhibition of PDGFRA at 10 uM after 60 mins by TR-FRET assay
Platelet-derived growth factor receptor alpha (Homo sapiens), sequence (P16234 whole entry): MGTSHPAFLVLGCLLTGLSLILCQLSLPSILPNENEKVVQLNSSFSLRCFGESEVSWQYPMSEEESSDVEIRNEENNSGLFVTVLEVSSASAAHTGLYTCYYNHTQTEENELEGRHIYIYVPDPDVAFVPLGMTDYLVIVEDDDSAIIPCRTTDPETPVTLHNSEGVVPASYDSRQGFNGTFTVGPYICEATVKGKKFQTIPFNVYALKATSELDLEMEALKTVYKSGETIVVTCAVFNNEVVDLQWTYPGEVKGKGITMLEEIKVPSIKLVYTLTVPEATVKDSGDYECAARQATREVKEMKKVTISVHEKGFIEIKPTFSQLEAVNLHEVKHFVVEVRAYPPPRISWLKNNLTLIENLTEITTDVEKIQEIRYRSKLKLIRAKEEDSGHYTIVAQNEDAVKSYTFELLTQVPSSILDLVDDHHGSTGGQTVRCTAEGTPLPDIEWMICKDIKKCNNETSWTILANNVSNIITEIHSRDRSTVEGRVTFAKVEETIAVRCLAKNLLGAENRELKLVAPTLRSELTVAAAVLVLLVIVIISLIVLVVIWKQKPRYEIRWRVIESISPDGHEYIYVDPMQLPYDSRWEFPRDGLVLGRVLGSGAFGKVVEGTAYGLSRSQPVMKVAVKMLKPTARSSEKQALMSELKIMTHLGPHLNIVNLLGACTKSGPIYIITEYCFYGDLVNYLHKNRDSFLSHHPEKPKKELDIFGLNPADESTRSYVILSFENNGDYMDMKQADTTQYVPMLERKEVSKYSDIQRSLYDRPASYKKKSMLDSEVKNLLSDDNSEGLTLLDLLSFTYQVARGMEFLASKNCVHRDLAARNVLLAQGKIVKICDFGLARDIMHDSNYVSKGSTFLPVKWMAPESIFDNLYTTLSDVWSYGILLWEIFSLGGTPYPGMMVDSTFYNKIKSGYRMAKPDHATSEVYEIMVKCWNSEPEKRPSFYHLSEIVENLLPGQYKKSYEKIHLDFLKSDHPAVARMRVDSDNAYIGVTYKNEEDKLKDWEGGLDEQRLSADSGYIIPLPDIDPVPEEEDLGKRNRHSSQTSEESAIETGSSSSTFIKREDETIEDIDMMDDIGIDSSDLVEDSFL

[16] = biological target: Macrophage colony-stimulating factor 1 receptor (Homo sapiens) (UniProt P07333); assay: Inhibition of CSF1R at 10 uM after 60 mins by TR-FRET assay
[17] = biological target: Mitogen-activated protein kinase 9 (Homo sapiens, UniProt P45984); assay: Inhibition of recombinant JNK2 after 60 mins by TR-FRET assay
Mitogen-activated protein kinase 9, sequence (P45984 whole entry): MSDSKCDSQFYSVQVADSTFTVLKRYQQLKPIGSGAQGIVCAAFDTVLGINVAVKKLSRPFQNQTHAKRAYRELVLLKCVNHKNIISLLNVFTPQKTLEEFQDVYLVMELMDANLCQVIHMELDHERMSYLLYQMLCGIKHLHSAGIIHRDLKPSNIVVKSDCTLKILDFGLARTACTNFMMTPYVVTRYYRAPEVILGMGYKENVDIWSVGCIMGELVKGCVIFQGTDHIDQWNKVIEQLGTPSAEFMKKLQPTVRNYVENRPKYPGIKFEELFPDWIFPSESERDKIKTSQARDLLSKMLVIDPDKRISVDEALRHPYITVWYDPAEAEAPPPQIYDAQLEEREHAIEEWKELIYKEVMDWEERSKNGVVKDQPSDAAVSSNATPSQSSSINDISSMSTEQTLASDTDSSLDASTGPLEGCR

[18] = biological target: Mitogen-activated protein kinase 14 (Homo sapiens, UniProt Q16539); assay: Inhibition of recombinant p38alpha after 60 mins by TR-FRET assay
Mitogen-activated protein kinase 14, sequence (Q16539 whole entry): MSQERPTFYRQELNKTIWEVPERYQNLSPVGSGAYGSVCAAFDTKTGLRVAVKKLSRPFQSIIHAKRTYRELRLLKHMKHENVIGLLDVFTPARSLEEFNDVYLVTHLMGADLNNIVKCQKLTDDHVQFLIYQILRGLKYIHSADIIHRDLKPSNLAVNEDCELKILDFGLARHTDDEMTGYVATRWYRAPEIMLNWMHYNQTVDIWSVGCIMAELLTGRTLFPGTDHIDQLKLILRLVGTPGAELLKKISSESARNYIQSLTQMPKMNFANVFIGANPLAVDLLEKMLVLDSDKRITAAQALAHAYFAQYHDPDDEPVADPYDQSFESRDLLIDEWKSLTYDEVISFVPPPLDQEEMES

[19] = biological target: T3, Mitogen-activated protein kinase 1; assay: Inhibition of MAPK1 at 10 uM after 60 mins by TR-FRET assay
[20] = system: RAF proto-oncogene serine/threonine-protein kinase (Homo sapiens), P04049 [Y340D,Y341D]; assay: Inhibition of RAF1 Y340D, Y341D mutant at 10 uM after 60 mins by TR-FRET assay
[21] = biological target: RAC-alpha serine/threonine-protein kinase (Homo sapiens) (UniProt P31749); assay: Inhibition of AKT1 at 10 uM after 60 mins by TR-FRET assay
[22] = biological target: Rho-associated protein kinase 2 (Homo sapiens) (UniProt O75116); assay: Inhibition of ROCK2 at 10 uM after 60 mins by TR-FRET assay
[23] = biological target: Proto-oncogene tyrosine-protein kinase receptor Ret (Homo sapiens) (UniProt P07949); assay: Inhibition of RET at 10 uM after 60 mins by TR-FRET assay
[24] = biological target: Receptor-type tyrosine-protein kinase FLT3 (Homo sapiens) (UniProt P36888); assay: Inhibition of FLT3 at 10 uM after 60 mins by TR-FRET assay
[25] = biological target: Insulin receptor (Homo sapiens) (UniProt P06213); assay: Inhibition of INSR at 10 uM after 60 mins by TR-FRET assay
[26] = biological target: Glycogen synthase kinase-3 beta (Homo sapiens) (UniProt P49841); assay: Inhibition of GSK3B at 10 uM after 60 mins by TR-FRET assay
[27] = biological target: Dual specificity protein kinase CLK1 (Homo sapiens) (UniProt P49759); assay: Inhibition of CLK1 at 10 uM after 60 mins by TR-FRET assay
Dual specificity protein kinase CLK1 (Homo sapiens), sequence (P49759 whole entry, looked up): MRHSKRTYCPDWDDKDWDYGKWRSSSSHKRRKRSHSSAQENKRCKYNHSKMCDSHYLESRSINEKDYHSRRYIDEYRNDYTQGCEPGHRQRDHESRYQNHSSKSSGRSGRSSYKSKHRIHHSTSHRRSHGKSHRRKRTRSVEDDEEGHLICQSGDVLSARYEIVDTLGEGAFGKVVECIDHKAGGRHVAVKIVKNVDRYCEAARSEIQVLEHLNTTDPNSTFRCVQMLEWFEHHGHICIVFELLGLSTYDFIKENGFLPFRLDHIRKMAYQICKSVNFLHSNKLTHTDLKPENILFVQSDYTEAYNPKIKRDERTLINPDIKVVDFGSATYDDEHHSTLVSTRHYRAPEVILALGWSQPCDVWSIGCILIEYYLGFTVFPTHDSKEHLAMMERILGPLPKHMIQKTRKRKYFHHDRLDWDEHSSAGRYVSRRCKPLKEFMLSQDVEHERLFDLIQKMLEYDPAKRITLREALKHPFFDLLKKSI

[28] = biological target: Tyrosine-protein kinase ABL1 (Homo sapiens) (UniProt P00519); assay: Inhibition of ABL1 at 10 uM after 60 mins by TR-FRET assay

Serine/threonine-protein kinase PLK3 (Homo sapiens), sequence (Q9H4B4 whole entry, looked up): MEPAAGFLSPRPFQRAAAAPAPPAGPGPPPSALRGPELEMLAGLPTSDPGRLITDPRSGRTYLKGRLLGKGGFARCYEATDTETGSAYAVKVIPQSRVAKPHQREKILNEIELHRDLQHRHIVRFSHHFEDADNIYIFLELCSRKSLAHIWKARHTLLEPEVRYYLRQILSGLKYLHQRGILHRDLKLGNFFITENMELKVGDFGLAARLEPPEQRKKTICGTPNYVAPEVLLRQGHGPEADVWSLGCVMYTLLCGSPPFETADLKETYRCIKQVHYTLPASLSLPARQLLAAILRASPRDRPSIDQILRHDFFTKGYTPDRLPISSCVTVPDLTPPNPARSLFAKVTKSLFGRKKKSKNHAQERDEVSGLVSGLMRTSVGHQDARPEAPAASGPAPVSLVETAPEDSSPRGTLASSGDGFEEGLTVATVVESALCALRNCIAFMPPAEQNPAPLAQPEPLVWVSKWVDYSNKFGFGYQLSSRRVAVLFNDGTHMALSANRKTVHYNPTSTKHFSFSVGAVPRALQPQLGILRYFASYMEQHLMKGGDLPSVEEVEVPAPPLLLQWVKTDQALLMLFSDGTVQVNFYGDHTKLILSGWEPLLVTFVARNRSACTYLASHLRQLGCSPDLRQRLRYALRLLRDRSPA

Structure (SMILES) | inhibition [1] | inhibition [2] | inhibition [3] | inhibition [4] | inhibition [5] | pIC50 [6] | inhibition [7] | inhibition [8] | inhibition [9] | inhibition [10] | inhibition [11] | inhibition [12] | inhibition [13] | pIC50 [14] | inhibition [15] | inhibition [16] | pIC50 [17] | pIC50 [18] | inhibition [19] | inhibition [20] | further results
O=c1n(C2CCOCC2)nc(-c2ccnc(NC3CCCCC3)c2)n1-c1ccc2ccccc2c1 | 32% | 0% | 5% | 7% | 86% | 6.38 | 26% | -10% | 19% | 3% | 13% | 3% | 7% | < 4.30 | 7% | 7% | 7.01 | < 4.30 | -1% | -3% | inhibition [21]: 0%; inhibition [22]: 9%; inhibition [23]: 10%; inhibition [24]: 8%; inhibition [25]: 10%; inhibition [26]: 15%; inhibition [27]: 4%; inhibition [28]: 5%
O=c1n(Cc2ccccn2)nc(-c2ccnc(NC3CCOCC3)c2)n1-c1ccc2ccccc2c1 | 5% | 2% | 10% | 7% | 72% | 6.00 | 1% | -9% | 8% | -3% | 2% | 0% | 7% | < 4.30 | -10% | 4% | 7.03 | < 4.30 | -1% | 0% | inhibition [21]: -5%; inhibition [22]: 5%; inhibition [23]: -1%; inhibition [24]: 11%; inhibition [25]: 7%; inhibition [26]: 7%; inhibition [27]: 2%; inhibition [28]: 1%
O=c1n(Cc2ccncc2)nc(-c2ccnc(NC3CCCCC3)c2)n1-c1ccc2ccccc2c1 | -5% | -5% | 2% | -9% | 76% | 6.15 | 7% | 5% | 2% | -3% | 6% | -3% | 19% | < 4.30 | 1% | 1% | 7.01 | < 4.30 | 5% | -2% | inhibition [21]: -2%; inhibition [22]: 6%; inhibition [23]: 3%; inhibition [24]: 20%; inhibition [25]: 2%; inhibition [26]: 13%; inhibition [27]: 3%; inhibition [28]: -2%
O=c1[nH]nc(-c2ccnc(NC3CCOCC3)c2)n1-c1ccc2ccccc2c1 | 13% | 30% | 19% | 25% | 73% | 5.74 | 14% | -4% | 11% | 3% | 6% | 24% | 11% | < 4.30 | 1% | 74% | 6.60 | < 4.30 | 5% | 16% | inhibition [21]: 3%; inhibition [22]: 10%; inhibition [23]: 11%; inhibition [24]: 32%; inhibition [25]: 8%; inhibition [26]: 73%; inhibition [27]: 6%; inhibition [28]: 5%
O=c1[nH]nc(-c2ccnc(NC3CCCOC3)c2)n1-c1ccc2ccccc2c1 (stereo not given) | 79% | 10% | 27% | 29% | 81% | 6.13 | 70% | -5% | 38% | 16% | 47% | 15% | 10% | 4.66 | 12% | 60% | 6.89 | < 4.30 | 1% | 0% | inhibition [21]: 0%; inhibition [22]: 8%; inhibition [23]: 37%; inhibition [24]: 23%; inhibition [25]: 18%; inhibition [26]: 81%; inhibition [27]: 22%; inhibition [28]: 17%
